# Results as given in US8106047B2, “Triazolophthalazines” (NYCOMED GmbH, priority 2005, dated 2012).
# “Also recorded” adds a separate entry of the source.
# Tested on: HUVEC monolayers
# Assay: Inhibition of macromolecule (HRP) permeability of thrombin-stimulated HUVEC monolayers
# Type: cell-based, human
# Conditions: 10 μM Motapizone (PDE3) and 1 μM RP73401 (PDE4) together, 1 U/ml thrombin
# Description: Method to Assess Inhibition of Macromolecule Permeability of HUVEC Monolayers
# The procedure to measure macromolecule permeability of endothelial cell monolayers followed the method described by Langeler & van Hinsbergh (1988) with modifications. Human umbilical vein endothelial cells were isolated from umbilical cords according to standard procedures (Jaffe et al. 1973) and cultured in endothelial cell basal medium (EBM) supplemented with 2% FCS, 0.5 ng/ml VEGF, 10 ng/ml bFGF, 5 ng/ml EGF, 20 ng/ml Long R3 IGF-1, 0.2 μg/ml hydrocortisone, 1 μg/ml ascorbic acid, 22.5 μg/ml heparin, 50 μg/ml gentamicin, 50 ng/ml amphotericin B (EGM2 purchased from Promocell GmbH, Heidelberg, Germany). At confluency, cells were trypsinized and replated at 73000 cells per well on 3 μm polycarbonate filter Transwell inserts (Costar GmbH, Bodenheim, Germany) precoated with 10 μg cm^2−1 Fibronectin (Sigma, Taufkirchen, Germany). HUVECs were cultured in EGM2 (100 μl in the upper wells and 600 μl in the lower wells) over four days prior the experiments and medium was changed every other day. At the day of the experiment culture medium was replaced by M199 with 1% human serum albumin. Endothelial cells were preincubated with cyclic nucleotide modifiers (the selective PDE3 inhibitor motapizone, the selective PDE4 inhibitor RP73401, the cGMP generators ANP or SNP and PDE2 inhibitors) for 15 min. HUVECs were then stimulated with Thrombin (1 U ml^−1) (Sigma, Taufkichen, Germany) and horsh radish peroxidase (5 μg/ml) (Sigma, Taufkirchen, Germany) as the macromolecule marker protein was added to the upper wells. Following 1 h incubation time Transwells were removed and the activity of horsh radish peroxidase that penetrated the endothelial cell monolayer was measured in the lower wells with the 3,3′,5,5′-tetramethylbenzidine liquid substrate system from Sigma (Taufkirchen, Germany).
# In parallel, compounds according to the invention can inhibit Thrombin-induced permeability of HUVEC monolayers for horsh radish peroxidase (HRP) as a macromolecule marker. […] The concentration-dependent inhibition of HRP permeability at different concentrations was assessed from the percent inhibition in the presence and absence of the PDE2 inhibitors and in the presence of 1 μM RP73401, 10 μM Motapizone and 100 nM ANP.
# Inhibition of SNP- or ANP-Induced Permeability of HUVEC Monolayers:
# HUVEC cells on 3 μm polycarbonate filters (Transwells) were preincubated with 1 μM RP73401 (to block PDE4) and 10 μM Motapizone (to block PDE3), 1 mM SNP or 100 nM ANP and test sample over 15 min and then stimulated with 1 U/ml thrombin. HRP passage into the lower wells was assessed after 60 min.
row,Compound,Thrombin-induced increase of HRP permeability (hyperpermeability)
1,"CC1CC(=O)NN=C1c1cc(-n2ccnc2)cs1 (centres unmarked) [Motapizone, reference compound]",completely abolished; also recorded: completely blocked
2,"COc1ccc(C(=O)Nc2c(Cl)cncc2Cl)cc1OC1CCCC1 [RP73401, reference compound]",completely abolished; also recorded: completely blocked

# Same assay, conditions: Homo sapiens, 1 h; HUVEC on Transwells, 1 μM RP73401, 10 μM Motapizone, 1 mM SNP or 100 nM ANP, 1 U/ml thrombin, HRP passage after 60 min; read-out: Inhibition of SNP- or ANP-induced permeability, −log IC50 [mol/l] (converted)
row,Compound,IC50
1,"COc1ccc(-c2nnc3c4ccccc4c(Nc4ccc(NS(=O)(=O)c5cccs5)cc4)nn23)cc1 [Compound 1, Thiophene-2-sulfonic acid {4-[3-(4-methoxy-phenyl)-[1,2,4]triazolo[3,4-a]phthalazin-6-ylamino]-phenyl}-amide]",0.000501 to 0.126 µM
2,"COc1ccc(-c2nnc3c4ccccc4c(Nc4ccc(NS(C)(=O)=O)cc4)nn23)cc1 [Compound 3, N-{4-[3-(4-Methoxy-phenyl)-[1,2,4]triazolo[3,4-a]phthalazin-6-ylamino]-phenyl}-methanesulfonamide]",0.000501 to 0.126 µM
3,"COc1ccc(-c2nnc3c4ccccc4c(Nc4ccc(NS(=O)(=O)Cc5ccccc5)cc4)nn23)cc1 [Compound 4, N-{4-[3-(4-Methoxy-phenyl)-[1,2,4]triazolo[3,4-a]phthalazin-6-ylamino]-phenyl}-1-phenyl-methanesulfonamide]",0.000501 to 0.126 µM
4,"COc1ccc(-c2nnc3c4ccccc4c(Nc4ccc(NS(=O)(=O)N5CCOCC5)cc4)nn23)cc1 [Compound 6, Morpholine-4-sulfonic acid {4-[3-(4-methoxy-phenyl)-[1,2,4]triazolo[3,4-a]phthalazin-6-ylamino]-phenyl}-amide]",0.000501 to 0.126 µM
5,"COc1ccc(-c2nnc3c4ccccc4c(Nc4ccc(S(=O)(=O)N(C)C)cc4)nn23)cc1 [Compound 7, [4-(N,N-dimethylsulfamoyl)-phenyl]-[3-(4-methoxy-phenyl)-[1,2,4]triazolo[3,4-a]phthalazin-6-yl]-amine]",0.000501 to 0.126 µM
6,"COc1ccc(-c2nnc3c4ccccc4c(Nc4cccc(NS(=O)(=O)c5ccc(C)cc5)c4)nn23)cc1 [Compound 9, N-{3-[3-(4-Methoxy-phenyl)-[1,2,4]triazolo[3,4-a]phthalazin-6-ylamino]-phenyl}-4-methyl-benzenesulfonamide]",0.000501 to 0.126 µM
7,"COc1ccc(-c2nnc3c4ccccc4c(Nc4cccc(S(=O)(=O)N(C)C)c4)nn23)cc1 [Compound 13, [3-(N,N-dimethylsulfamoyl)-phenyl]-[3-(4-methoxy-phenyl)-[1,2,4]triazolo[3,4-a]phthalazin-6-yl]-amine]",0.000501 to 0.126 µM
8,"CN(C)S(=O)(=O)c1cccc(Nc2nn3c(-c4ccccc4Br)nnc3c3ccccc23)c1 [Compound 27, [3-(N,N-dimethylsulfamoyl)-phenyl]-[3-(2-bromo-phenyl)-[1,2,4]triazolo[3,4-a]phthalazin-6-yl]-amine]",0.000501 to 0.126 µM
9,"CN(C)S(=O)(=O)c1cccc(Nc2nn3c(-c4ccccc4C(F)(F)F)nnc3c3ccccc23)c1 [Compound 33, [3-(N,N-dimethylsulfamoyl)-phenyl]-[3-(2-trifluoromethyl-phenyl)-[1,2,4]triazolo[3,4-a]phthalazin-6-yl]-amine]",0.000501 to 0.126 µM

# Tested on: not given
# Assay: not given
# Conditions: not given
row,Compound,melting point
1,"COc1ccc(-c2nnc3c4ccccc4c(Nc4ccc(NS(=O)(=O)c5cccs5)cc4)nn23)cc1 [Compound 1, Thiophene-2-sulfonic acid {4-[3-(4-methoxy-phenyl)-[1,2,4]triazolo[3,4-a]phthalazin-6-ylamino]-phenyl}-amide]",351 to 353 °C
2,"COc1ccc(-c2nnc3c4ccccc4c(Nc4ccc(NS(=O)(=O)c5cn(C)cn5)cc4)nn23)cc1 [Compound 2, 1-Methyl-1H-imidazole-4-sulfonic acid {4-[3-(4-methoxy-phenyl)-[1,2,4]triazolo[3,4-a]phthalazin-6-ylamino]-phenyl}-amide]",346 to 348 °C
3,"COc1ccc(-c2nnc3c4ccccc4c(Nc4ccc(NS(C)(=O)=O)cc4)nn23)cc1 [Compound 3, N-{4-[3-(4-Methoxy-phenyl)-[1,2,4]triazolo[3,4-a]phthalazin-6-ylamino]-phenyl}-methanesulfonamide]",318 to 320 °C
4,"COc1ccc(-c2nnc3c4ccccc4c(Nc4ccc(NS(=O)(=O)Cc5ccccc5)cc4)nn23)cc1 [Compound 4, N-{4-[3-(4-Methoxy-phenyl)-[1,2,4]triazolo[3,4-a]phthalazin-6-ylamino]-phenyl}-1-phenyl-methanesulfonamide]",304 to 306 °C
5,"COc1ccc(-c2nnc3c4ccccc4c(Nc4ccc(NS(=O)(=O)c5cccc(OC)c5)cc4)nn23)cc1 [Compound 5, 3-Methoxy-N-{4-[3-(4-methoxy-phenyl)-[1,2,4]triazolo[3,4-a]phthalazin-6-ylamino]-phenyl}-benzenesulfonamide]",290 °C
6,"COc1ccc(-c2nnc3c4ccccc4c(Nc4ccc(NS(=O)(=O)N5CCOCC5)cc4)nn23)cc1 [Compound 6, Morpholine-4-sulfonic acid {4-[3-(4-methoxy-phenyl)-[1,2,4]triazolo[3,4-a]phthalazin-6-ylamino]-phenyl}-amide]",266 to 270 °C
7,"COc1ccc(-c2nnc3c4ccccc4c(Nc4cccc(NS(=O)(=O)c5ccc(C)cc5)c4)nn23)cc1 [Compound 9, N-{3-[3-(4-Methoxy-phenyl)-[1,2,4]triazolo[3,4-a]phthalazin-6-ylamino]-phenyl}-4-methyl-benzenesulfonamide]",336 to 346 °C (dec.)
8,"COc1ccc(-c2nnc3c4ccccc4c(Nc4cccc(NS(=O)(=O)c5cn(C)cn5)c4)nn23)cc1 [Compound 11, 1-Methyl-1H-imidazole-4-sulfonic acid {3-[3-(4-methoxy-phenyl)-[1,2,4]triazolo[3,4-a]phthalazin-6-ylamino]-phenyl}-amide]",184 to 187 °C
9,"COc1ccc(-c2nnc3c4ccccc4c(Nc4cccc(NS(=O)(=O)c5ccc(C(C)=O)cc5)c4)nn23)cc1 [Compound 12, 4-Acetyl-N-{3-[3-(4-methoxy-phenyl)-[1,2,4]triazolo[3,4-a]phthalazin-6-ylamino]-phenyl}-benzenesulfonamide]",352 to 354 °C
10,"COc1ccc(-c2nnc3c4ccccc4c(Nc4cccc(NS(=O)(=O)c5ccc(N6CCOCC6)nc5)c4)nn23)cc1 [Compound 16, 6-Morpholin-4-yl-pyridine-3-sulfonic acid {3-[3-(4-methoxy-phenyl)-[1,2,4]triazolo[3,4-a]phthalazin-6-ylamino]-phenyl}-amide]",323 to 329 °C
11,"COc1ccc(-c2nnc3c4ccccc4c(Nc4cccc(NS(=O)(=O)c5ccc(NC(C)=O)cc5)c4)nn23)cc1 [Compound 18, N-(4-{3-[3-(4-Methoxy-phenyl)-[1,2,4]triazolo[3,4-a]phthalazin-6-ylamino]-phenylsulfamoyl}-phenyl)-acetamide]",328 to 331 °C
12,"COc1ccc(-c2nnc3c4ccccc4c(Nc4cccc(S(N)(=O)=O)c4)nn23)cc1 [Compound 23, 3-[3-(4-Methoxy-phenyl)-[1,2,4]triazolo[3,4-a]phthalazin-6-ylamino]-benzenesulfonamide]",342 to 349 °C
13,"COc1ccc(-c2nnc3c4ccccc4c(Nc4cccc(S(=O)(=O)N(C)C)c4)nn23)cc1 [Compound 24, 3-[3-(4-Methoxy-phenyl)-[1,2,4]triazolo[3,4-a]phthalazin-6-ylamino]-N,N-dimethyl-benzenesulfonamide]",220 to 227 °C
14,"COc1ccc(Cc2nnc3c4ccccc4c(Nc4ccc(S(=O)(=O)N5CCCCC5)cc4)nn23)cc1 [Compound 35, [3-(4-Methoxy-benzyl)-[1,2,4]triazolo[3,4-a]phthalazin-6-yl]-[4-(piperidine-1-sulfonyl)-phenyl]-amine]",283 to 285 °C

# Now from value to molecule:
row,melting point,Compound
1,314 °C,"COc1ccc(-c2nnc3c4ccccc4c(Nc4ccc(C#N)cc4)nn23)cc1 [Compound T2, 4-[3-(4-Methoxyphenyl)-[1,2,4]triazolo[3,4-a]phthalazin-6-ylamino]-benzonitrile]"
2,305 to 308 °C,"COc1ccc(-c2nnc3c4ccccc4c(Nc4cccc(-c5nn[nH]n5)c4)nn23)cc1 [Compound T3, [3-(4-Methoxy-phenyl)-[1,2,4]triazolo[3,4-a]phthalazin-6-yl]-[3-(2H-tetrazol-5-yl)-phenyl]-amine]"
3,281 to 284 °C,"COc1ccc(-c2nnc3c4ccccc4c(Nc4ccc(-c5nn[nH]n5)cc4)nn23)cc1 [Compound T4, [3-(4-Methoxy-phenyl)-[1,2,4]triazolo[3,4-a]phthalazin-6-yl]-[4-(2H-tetrazol-5-yl)-phenyl]-amine]"
4,256 to 259 °C,"COc1ccc(-c2nnc3c4ccccc4c(Nc4cccc(-c5nnn(C)n5)c4)nn23)cc1 [Compound T5, [3-(4-Methoxy-phenyl)-[1,2,4]triazolo[3,4-a]phthalazin-6-yl]-[3-(2-methyl-2H-tetrazol-5-yl)-phenyl]-amine]"
5,289 to 293 °C,"COc1ccc(-c2nnc3c4ccccc4c(Nc4ccc(-c5nnn(C)n5)cc4)nn23)cc1 [Compound T6, [3-(4-Methoxy-phenyl)-[1,2,4]triazolo[3,4-a]phthalazin-6-yl]-[4-(2-methyl-2H-tetrazol-5-yl)-phenyl]-amine]"
6,292 to 293 °C,"COc1ccc(Cc2nnc3c4ccccc4c(Nc4cccc(-c5nn[nH]n5)c4)nn23)cc1 [Compound T8, [3-(4-Methoxy-benzyl)-[1,2,4]triazolo[3,4-a]phthalazin-6-yl]-[3-(2H-tetrazol-5-yl)-phenyl]-amine]"
7,262 to 264 °C,"COc1ccc(Cc2nnc3c4ccccc4c(Nc4cccc(-c5nnn(C)n5)c4)nn23)cc1 [Compound T9, [3-(4-Methoxy-benzyl)-[1,2,4]triazolo[3,4-a]phthalazin-6-yl]-[3-(2-methyl-2H-tetrazol-5-yl)-phenyl]-amine]"
